Measurements taken from ChEMBL document CHEMBL3507680, “University of Dundee, Gates Library screen for HepG2 cell viability”.

Test: Human HepG2 cell viability assay in 384 well format
Type: toxicity, cell-based
Design: dose 125 nL, time 70.5 hour; concentration not given beside the values
Settings: HepG2 cells, read-out: Inhibition

SMILES	cytotoxicity at 70.5 h [%]
Cc1nc2cc(=O)[nH]n2c(C)c1CC(=O)Nc1ccc2ccccc2n1	-6.2
CC(C)Oc1cc(N2C[C@@H](C)O[C@@H](C)C2)nc(N)n1	-14.6
Cc1nc(C2CCCN2Cc2ccn(C)c(=O)c2)no1 (centres undefined)	0.568
CC1CCN(S(=O)(=O)NCc2ccccc2Cn2cncn2)CC1	-2.92
Cc1nn(C)c2nc(C(C)C)cc(C(=O)Nc3n[nH]c(C4CC4)n3)c12	27
COCc1cccc(C(=O)N2CCN(C3=NCC(C)(C)S3)CC2)c1	-3.27
c1cncc(O[C@H]2COCCN(CC3CC3)C2)c1	0.0943
COCC1CN(Cc2ccoc2)Cc2nnn(C)c21 (centres undefined)	-13.7
Cc1c[nH]c(CN2CCCCC2CCn2ccnc2C)c(C)c1=O (centres undefined)	-8.38
c1ccc(C2(CNCc3cnc(N4CCOCC4)nc3)CC2)cc1	-8.71
CCN(CC)C(=O)c1nc2c(s1)CCN(C(=O)Nc1ccccc1)CC2	5.97
Cc1ccccc1CN1CC[C@@]2(O)CCN(C(=O)C3CCC3)C[C@H]2C1	2.03
O=C(NCCc1cnccn1)C1(N2CCCCC2)Cc2ccccc2C1	-8.18
Cc1cnn(C(C)C2CC2)c1NC(=O)c1cnccn1 (centres undefined)	-11.2
Cc1ccc(Cn2c(=O)[nH]c3cccnc3c2=O)cc1	-8.02
CN(Cc1ccsc1)C(=O)Cn1c(CS(C)(=O)=O)nc2ccccc21	-1.3
Cc1nc(C)n(CC2CCCN2CCC(=O)NC2CCCC2)n1 (centres undefined)	0.666
COc1cc(C)ccc1OCc1nc(C(=O)N2CCCC2)co1	0.58
CN(Cc1csc(-c2cccs2)n1)C(=O)CCn1ccccc1=O	-17.2
COc1ccc(C(=O)NCCCn2ccnc2)c(OC)n1	39.9
Cc1ccc(O)c(-c2cc(NCCO)nc3[nH]ccc23)c1	-4.62
COc1ccc(F)cc1C(=O)N(C)Cc1cc(C)on1	-15.7
CCN1CCC(CC(=O)N2CCN(c3ccccc3OC)CC2C)CC1 (centres undefined)	23.7

SMILES	cytotoxicity at 70.5 h [%]
O=C(CCNc1ncccn1)Nc1ccc(Cn2cncn2)cc1	-7.19
O=C(CSc1nnc[nH]1)NCc1sccc1Br	-5.23
Cc1cccc(C(=O)N2C[C@@H]3[C@H](CC(=O)Nc4cccnc4)[C@@H]3C2)n1	-14.3
O=C(C[S+]([O-])Cc1cccc(C(F)(F)F)c1)NC1CCCC1 (centres undefined)	-8.39
CN(Cc1nc(N)c2ccccc2n1)CC1CCCN1c1cccnn1 (centres undefined)	-16.6
Cc1cccc(NC(=O)CN(C)C(=O)c2ccc(OC(C)C)nc2)n1	-2.88
Cc1cnn(CC(C)NCc2ccc(C#N)cc2F)c1 (centres undefined)	-4.59
CSCc1cc(F)ccc1CNCc1ccncc1	4.11
Cc1ncc2c(n1)CCN(Cc1ncc(C(C)(C)C)o1)C2	-11.4
CCCS(=O)(=O)CC(=O)N1CCN(CC2CC2)c2ccccc21	-7.98
CSCc1cccc(S(=O)(=O)NCCCN2CCOCC2)c1	-6.88
Nc1nc2c(c(NCc3ccc(C(=O)N4CCCC4)cc3)n1)CCCC2	2.85
O=C1OCCC1N1CCN(c2cnccn2)CC1 (centres undefined)	-8.4
Cc1csc(N2CCCN(C(=O)C3(C#N)CCCC3)CC2)n1	-8.33
CCC(Cn1ccnc1)n1cnc2scc(C)c2c1=O (centres undefined)	13.9
NCCc1n[nH]c(=O)n1-c1cccc(Cl)c1Cl	-3.82
COC(=O)CSc1nnc2[nH]c(=O)c3c(n12)CCCC3	-13.8
CNC(=O)N1CCc2nc(C(=O)NCc3cccc(OC)c3)sc2CC1	18
CCNC(=O)COc1cc(CC)c2c(C)nn(-c3ccc(C)cc3)c2n1	-3.18
CCOCCCNC(=O)CN(c1ccc(F)c(F)c1)S(C)(=O)=O	-12.9
O=C(NCC1CCN(c2ncccn2)CC1)c1cnccn1	-12.6
COc1ccc(-c2cc(C3CCCCCN3S(C)(=O)=O)on2)cc1 (centres undefined)	-2.6
CCOc1cc(CN(C)Cc2ccccc2)ccc1OC(F)F	-6.62

SMILES	cytotoxicity at 70.5 h [%]
Cc1ccc(C2CN(C(=O)c3c(C)cc(C)[nH]c3=O)CCO2)c(C)c1 (centres undefined)	9.82
Fc1ccc(Nc2ccc(C3CCN(Cc4ncc[nH]4)CC3)nc2)nc1	-4.32
Cc1ncsc1C(=O)NCCNC(=O)OC(C)(C)C	-2.69
Cc1ccc(C(=O)N2C[C@H]3CCCC(OCc4cccnc4)[C@H]3C2)cn1 (some centres undefined)	-1.36
COCc1cccc(NS(=O)(=O)c2cc(C(=O)O)cs2)c1	-12.7
CC(C)[C@@H]1CN(S(=O)(=O)c2cccc(C(=O)O)c2)C[C@H]1N(C)C	17.4
Cc1nc(N)ncc1C(=O)N1CCCC(CCc2ccc(F)cc2)C1 (centres undefined)	-18.8
COCCN1CCCN(C(=O)NC(C)Cn2cccn2)CC1 (centres undefined)	-14.2
COC(C)c1cccc(NCc2ccsc2)c1 (centres undefined)	-2.9
Fc1cc(CN2CCCC2Cn2cncn2)c2ncccc2c1 (centres undefined)	4.94
COc1cc(C)cc(C(C(=O)O)N(C)Cc2ccon2)c1OC (centres undefined)	-0.471
CC(C)CN1CCC(c2nc3c([nH]2)CC(C)(C)CNC3=O)C1 (centres undefined)	-9.67
N#CC1CCCN(C(=O)Cn2ncc(N3CCCC3)cc2=O)C1 (centres undefined)	-7.57
O=C1NCCCC12CCN(c1nc3c(c(C(F)(F)F)n1)CCCC3)C2 (centres undefined)	-6
CCN(CCn1cccn1)Cc1nc(-c2ccc(C)o2)oc1C	13
CC(C)COC(C)C(=O)NCc1ccc(F)cc1 (centres undefined)	-19.1
CN(C)CC(=O)N1CCOCC2(C1)CN(c1ccccc1)C(=O)CO2 (centres undefined)	-45.3
CS(=O)(=O)CCC(=O)N(CCc1cccc(F)c1)C1CC1	-11.4
COc1cc(C(C)=O)ccc1OCC(=O)N(CC(C)C#N)C1CC1 (centres undefined)	-7.18
Cc1ccccc1CNC(=O)Cn1nc(-c2ccc(F)cc2)oc1=O	-9.26
Cn1cc(CN2CC[C@H]3CO[C@H](CNc4ncccn4)[C@H]3C2)cn1	20.3
Cc1noc2ncc(C(=O)NCC3CCN(C(C)C)C3)cc12 (centres undefined)	-4.09
Cc1noc(C)c1S(=O)(=O)NCC(O)c1ccc2c(c1)CCO2 (centres undefined)	17.6

SMILES	cytotoxicity at 70.5 h [%]
CN(CCNC(=O)Nc1ccn(C)n1)Cc1ccc(F)cc1	-22.5
CN(C)C(=O)c1ccc2c(c1)N(C)C(CC(=O)NC(CO)CO)CO2 (centres undefined)	-7.74
O=C(NC[C@H]1OC[C@@H](NC2CCCC2)[C@@H]1O)C1CCCC1	10.4
COC(=O)C(C)N(Cc1cc(C)on1)C1CC1 (centres undefined)	-5.22
COCCN1CCC(c2nc3ccc(NC4CCC4)cn3n2)CC1	0.236
Cc1cc(C)c(C(=O)N2CCC3(CCCN(CC(C)(C)C)C3)C2)[nH]1 (centres undefined)	15.2
Cc1c(C2CCCN(C(=O)Cc3ccccn3)C2)n2c(nc1=O)CCC2 (centres undefined)	0.807
CCn1cc2c(n1)CN(C(=O)c1ccncc1)CC2COCC1CC1 (centres undefined)	-25.7
N#Cc1ccc(OC[C@]23COC[C@H]2CN(Cc2ccccn2)C3)nc1	0.477
CC(C)N1CCOC(c2ccnc(N(C)C)n2)C1 (centres undefined)	-3.86
COCCn1cncc1CN1CCCC(C(=O)Cc2ccccc2)C1 (centres undefined)	0.198
COCc1cc(O)nc(C2CCCN(Cc3cccc(OC)c3)C2)n1 (centres undefined)	-1.68
CC(CNC(=O)c1ccc(C#N)cc1)N1CCc2ccccc21 (centres undefined)	0.334
COc1ccc(OC)c(C(=O)N(C)Cc2ncc(C)c(OC)c2C)c1	-9
Cc1[nH]c2c(F)cccc2c1CC(=O)NC1CCCCNC1=O (centres undefined)	24.9
CNc1nc2c(c(C(=O)N3CCCC3)n1)CN(C(=O)C1CCCC1)CC2	15.7
O=C(Cc1cccnc1)NC1CCCN(CCCc2ccccc2)C1 (centres undefined)	-8.8
COCc1nc(Cn2c(C)cc(C(F)(F)F)cc2=O)no1	23.9
CC(Cn1cccn1)NC(=O)NCc1cccnc1 (centres undefined)	-9.07
CC(C#N)NS(=O)(=O)c1ccc2c(c1)N(C)CCC2 (centres undefined)	-0.913
NS(=O)(=O)c1cnn(CCC(=O)N(Cc2ccccc2)C2CC2)c1	-7.26
Cc1nc2c(N(CCC(N)=O)CCc3ccccc3)ncnc2o1	22
CCCC(C#N)NC(=O)CCCOc1cccc(F)c1 (centres undefined)	-9.46

SMILES	cytotoxicity at 70.5 h [%]
CC(NC(=O)COc1nc(C(C)(C)C)no1)c1ccco1 (centres undefined)	-6.24
CN(Cc1cccnc1)C1CC2(CCN(c3ncc(F)cn3)CC2)C1	-5.89
CNC(=O)c1cccc(CCNC(=O)N2CCc3ccccc3C2)c1	-1.68
Cn1ncc(NCc2cccc(F)c2)c(Cl)c1=O	-13.3
O=C(O)c1ccccc1CN1CCOC(CCc2ccncn2)C1 (centres undefined)	-4.46
COc1ccccc1C1(O)CCCN(C(=O)c2ccnn2C(C)C)C1 (centres undefined)	-1.5
Cc1ccc(C(=O)N2C[C@H](OCC3CCOCC3)[C@H]3OCCC[C@H]32)o1	0.644
CCOc1cc(NC(=O)N2CCOC3(CCC3)C2)ccc1C	-5.84
O=C(CCC1CCCCC1)NS(=O)(=O)CC1CC1	14.7
Cc1ccc(C(=O)N2CCN(C(=O)C(C)n3ccnc3)CC2)cc1F (centres undefined)	-5.92
CCN(CC1CN(Cc2ncc[nH]2)CCO1)c1cccnn1 (centres undefined)	-6.7
CCc1nccn1CC(=O)Nc1cccc(N2CCCC2)c1	9.22
CCOCC(=O)NC(C)c1cc(C)ccc1C (centres undefined)	12.7
Cc1n[nH]c(CN2CCN(CC3CC3)[C@@H]3CS(=O)(=O)C[C@@H]32)n1	44.8
CN(Cc1csc(-c2cccs2)n1)CC(O)CO (centres undefined)	18.7
COC(=O)C(c1ccccc1)N(C)C(=O)c1ccnc(C)n1 (centres undefined)	-8.31
O=C(CCCc1ccc(Cl)cc1)N1CCN(C(=O)c2ccc[nH]2)CC1	1.45
O=C(CN1CCCC(c2ncc[nH]2)C1)NCC(F)(F)F (centres undefined)	18.7
CC(C)c1cc(CN(C)C(=O)C(C)N2CCc3ccccc3C2)no1 (centres undefined)	34.4
Cc1nc(-c2ncc(C(=O)NCCNc3ncccc3C)c(O)n2)cs1	-2.82
CC(=O)N1CCN2C(=O)N(Cc3ccc(F)cc3)C[C@H]2C1	-13
C/C=C(\C)CN1C[C@@H](NC(=O)c2ccc(F)c(F)c2)C[C@H]1C(=O)NCC	-12.2
